Results on 1 substance are retold here after patent US10940201B2, “Nucleic acid derivative having immunostimulatory activity” (Shionogi & Co., Ltd., priority 2015, dated 2021).

The EC50 is the concentration that produces a half-maximal response.

The target in one assay is T1, human TLR9 (Homo sapiens, UniProt Q9NR96).
T1 construct: host or cells: HEK-Blue hTLR9 cells (HEK293)
T1 sequence (Q9NR96 26-1032): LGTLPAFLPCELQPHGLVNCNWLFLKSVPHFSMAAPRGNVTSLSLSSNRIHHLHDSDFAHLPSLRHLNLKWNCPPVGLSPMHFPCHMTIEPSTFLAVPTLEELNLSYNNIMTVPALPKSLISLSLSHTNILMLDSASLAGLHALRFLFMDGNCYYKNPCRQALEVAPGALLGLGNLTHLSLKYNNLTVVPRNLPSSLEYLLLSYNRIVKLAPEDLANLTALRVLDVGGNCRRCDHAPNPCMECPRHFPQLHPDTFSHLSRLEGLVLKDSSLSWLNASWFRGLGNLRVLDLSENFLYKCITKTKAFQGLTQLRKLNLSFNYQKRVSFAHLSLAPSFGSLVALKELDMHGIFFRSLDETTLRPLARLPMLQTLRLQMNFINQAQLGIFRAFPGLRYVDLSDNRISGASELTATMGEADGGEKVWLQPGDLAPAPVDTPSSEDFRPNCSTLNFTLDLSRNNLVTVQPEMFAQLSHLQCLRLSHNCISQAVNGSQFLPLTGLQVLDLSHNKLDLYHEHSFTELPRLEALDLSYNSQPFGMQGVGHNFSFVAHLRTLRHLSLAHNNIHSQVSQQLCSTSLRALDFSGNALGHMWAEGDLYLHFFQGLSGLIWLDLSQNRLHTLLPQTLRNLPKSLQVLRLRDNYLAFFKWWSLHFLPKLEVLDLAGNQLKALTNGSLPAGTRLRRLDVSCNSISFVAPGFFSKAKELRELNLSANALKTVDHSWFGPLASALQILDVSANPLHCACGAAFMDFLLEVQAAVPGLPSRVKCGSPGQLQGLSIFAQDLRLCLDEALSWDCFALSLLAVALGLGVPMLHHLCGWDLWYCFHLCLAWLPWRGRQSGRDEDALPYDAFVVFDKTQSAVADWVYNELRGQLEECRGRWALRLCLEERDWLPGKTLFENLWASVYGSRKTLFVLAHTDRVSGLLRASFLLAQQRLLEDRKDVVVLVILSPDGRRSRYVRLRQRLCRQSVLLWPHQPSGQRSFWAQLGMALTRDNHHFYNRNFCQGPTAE
Description: Reporter assay with HEK-Blue hTLR9 cells (TLR9 agonist activity). It is filed as cell-based. To be noted: HEK-Blue hTLR9 cells, 16 hours. As for the experimental part: HEK-Blue™ hTLR9 cells (Invivogen) used for the reporter assay were made by introducing human TLR9 gene and a reporter gene that secretory alkaline phosphatase gene bound to NF-kB-AP-1 binding region sequence in HEK293 cells, and are the cells stably expressing the both genes. 3.6×10^4 of the cells suspended in HEK-Blue™ Detection ([…]) comprising substrates against the alkaline phosphatase were seeded on the 96 well plate, and 3 nM to 30 μM of a lipid binding double-stranded oligonucleotide of the present invention, the known CpG oligonucleotides (ODN2006, SEQ-49), or adjuvant based on design in Patent Document 1, i.e., ssCpG ODN introducing a lipid ligand (SEQ-142, 143 or 144) was added. After culturing in a 37° C., 5% CO2 incubator for 16 hours, absorbency at 620 nm was measured using the culture supernatant developed a color. The result value was analyzed with TIBCO Spotfire software, and calculated the 50% effective concentration (EC50) of each oligonucleotide.

A further assay deals with recombinant PCRV protein. Description: Inducibility of antibody production in immunization by PCRV antigen vaccine (antibody titer). It is filed as in vivo. To be noted: A/J mice, recombinant PCRV protein with adjuvant, intradermal; antiserum Day 33; FIG. 15.
In the next assay the test system is B16F10 cells. Description: Anti-tumor effect in the absence of a tumor antigen peptide. Format: in vivo, mouse. To be noted: Table 69, compared to ODN2006 (SEQ-49). On the procedure:
After immunization by TRP2 peptide vaccine, B16F10 cells (ATTC) which is mouse melanoma expressing TRP2 protein was subcutaneously transplanted to evaluate anti-tumor effect. In a similar method to Example 3 A), on the next day that tetramer-positive ratio in peripheral blood of mouse vaccinated twice every 7 days was observed, B16F10 cells (1×10^5 cells/mouse) were subcutaneously transplanted in the right shoulder. The major and minor axes of the engrafted tumor were measured every 2 to 3 days, and the tumor volume was calculated by the formula: (major axis×minor axis^2)/2 Calculation method for indicators of anti-tumor effect For the adjuvant comprising ODN1826 100·(average tumor volume of adjuvant group)/(average tumor volume of ODN1826 group) For the adjuvant comprising ODN2006 100·(average tumor volume of adjuvant group)/(average tumor volume of ODN2006 group)
Antigen-specific CTL inducibility and anti-tumor effect of ODN2006 (SEQ-49) and SEQ-121 in the absence of a tumor antigen peptide were evaluated. In similar methods of A) and B) of Example 3, the effect of vaccine without a tumor antigen peptide was verified. Both of the antigen-specific CTL values of SEQ-49 and SEQ-121 were undetectable.

For a further assay, the system named is antigen-specific CTL. Description: Antigen-specific CTL inducibility in the absence of a tumor antigen peptide. It is filed as in vivo, mouse. As for the experimental part: On 7 days after second vaccination, the blood was collected, red blood cells was removed by BD Pharm Lyse (BD pharmingen), and the white blood cells were suspended in FACS buffer (1% fetal bovine serum, 2 mM PBS with EDTA). Anti-mouse CD16/32 monoclonal antibody (BioXcell) was added thereto, and Fc receptor blocking was carried out at 4° C. for 30 minutes. […] Then, staining was carried out with DAPI (Invitrogen) and the cells were washed twice with FACS buffer. It was resuspended in FACS buffer and analyzed by FACS verse Flow Cytometer (BD bioscience) and FAC Suite software (BD bioscience). For analysis, after DAPI negative fraction was gated, white blood cells fraction were provided using forward and side-way scattering as indicators. In the white blood cells fraction, both positive cells of Alexa 647-CD8 and PE-H-2Kb Tetramer were defined as CTLs. CTL ratio in white blood cells was used for evaluation.

Like-named read-outs stand apart in the source and are kept apart here.

Description for recombinant PCRV protein: Perv nucleotide sequence (SEQ ID NO: 48) derived from Pseudomonas aeruginosa Strain PAO1 was cloned at NdeI-XhoI site in pET21a vector, and Escherichia coli strain BL21 (DE3) was transformed with the prepared plasmid. Strain perV-BL21 (DE3) was cultured in 500 mL of LB/Ampicillin liquid medium at 37° C., and 200 μL of 0.1 M IPTG was added when OD600 became 0.5 to induce expression of recombinant PCRV protein. After culturing at 16° C. for 18 hours, bacteria was separated by a centrifuge, and 15 ml of Buffer A (50 mM Tris-HCl (pH8.0), 0.2M NaCl) comprising 0.5% lysozyme (SIGMA Corporation) was added. After putting at 4° C. for 30 minutes, ultrasonic treatment was carried out. After centrifugation at 12,000 rpm for 10 minutes, soluble fraction was obtained. 1 mL of Ni-NTA agarose gel (QIAGEN) was added to Polyprep column (BIO-RAD Laboratories, Inc) and equilibrated with 10 mL of Buffer A. Soluble fraction was added to the column and passed. […] The resulting recombinant PCRV protein was measured the concentration with BCA assay kit (PIERCE) and kept at −80° C. […]
Antibody titer was measured as blow. […] 20 μL/well of 0.5 N sulfuric acid (Nacalai) was added, and absorbance at 450 nm was measured with a plate reader. The dilution ratio when absorbance at 450 nm is 1.0 was calculated and put as an antibody titer.

As for ODN2006 [SEQ-49], the EC50 was 467 nM on human TLR9 (Experiment 1 (Table 28), read-out: EC50); roughly 467 nM at human TLR9 (Experiment 1, Table 28, read-out: EC50 value); 245 nM at human TLR9 (Experiment 2 (Table 29), read-out: EC50); roughly 245 nM at human TLR9 (Experiment 2, Table 29, read-out: EC50 value). Besides, the “antibody titer (dilution ratio when absorbance at 450 nm is 1.0)” value in the assay with recombinant PCRV protein is given as 5.3×10^5. Further, in the assay with B16F10 cells, the “Tumor inhibition rate (Day 12 after transplantation)” value is 0.00%. In addition, in the assay on antigen-specific CTL (Table 69, in the absence of a tumor antigen peptide), the “Ratio of average value of antigen-specific CTL” value is reported as “Undetectable”. Further, the “antigen-specific CTL values” in the assay with antigen-specific CTL (absence of a tumor antigen peptide) is listed as “undetectable”.
